According to patent publication US20240301000A1, “TETRAPEPTIDE DERIVATIVE,COSMETIC COMPOSITION OR PHARMACEUTICAL COMPOSITION AND USE THEREOF” (SHENZHEN WINKEY TECHNOLOGY CO., LTD, priority 2021, published 2024):
Residues, ends and D or L forms follow the SMILES beside them. *: point of attachment. X1 = O=C(OCc1cc(=O)c(O)co1)*; Nicotinoyl = O=C(c1cccnc1)*

Key:
Format in all cases: cell-based, Human
α-MSH = assay: Cell assay for inhibition of α-MSH generation (ELISA, HaCaT supernatant); conditions: 100 ppm, 48 h; for statistical difference in the α-MSH inhibition compared with the control group: HaCaT (FIG. 2); for effect on α-MSH expression: HaCaT supernatant, compared with PBS control group (FIG. 2)
Experimental: Fetal bovine serum, DMEM medium, penicillin, streptomycin, and an α-MSH ELISA kit.
(§1) Human keratinocytes (HaCaT) were purchased from the Kunming Cell Bank of China Center for Type Culture Collection under the Chinese Academy of Sciences.
• 100 ppm of the reference peptide, 100 ppm of the peptide (1), 100 ppm of the peptide (3), 100 ppm of the peptide (5), 100 ppm of NA, 100 ppm of TXC, and 100 ppm of KA.
(§2) The frozen HaCaT cells were cultured and passaged at a ratio of 1:2 to about the 5th generation, and the cells in better growth were selected as experiment subjects.
When the cells were about 80% confluent, the samples were added to each group. In the control group, a PBS solution was added and supplemented with a culture medium to 1000 μL. In the drug groups, the diluted active substance and the culture medium were added to 1000 μL and the groups were further incubated in a 5% CO2 incubator at 37° C. for 48 h. After the completion of the culture, the solutions were centrifuged at 3000 rpm for 10 min, in each of which a cell supernatant was collected to obtain a sample liquid. Operations were performed according to the instructions of the α-MSH kit.
α-MSH can promote the formation of melanin by activating tyrosinase. Therefore, down-regulation of the α-MSH expression can reduce melanin generation and exert a whitening effect.

TNF-α = assay: Anti-inflammatory cell assay, UV-irradiated HaCaT cells, TNF-α ELISA; conditions: 50 ppm, 48 h after UV irradiation, compared with UV group (FIG. 4)
Experimental: (§3) Fetal bovine serum, DMEM medium, penicillin, streptomycin, an IL-6 ELISA kit and a TNF-α ELISA kit.
as §1
(§4) • 50 ppm of the reference peptide, 50 ppm of the peptide (1), 50 ppm of the peptide (3), and 50 ppm of the peptide (5).
as §2
(§5) When the cells were about 80% confluent, a model of inflammation stimulated by UV radiation was established. In the control group, a PBS solution was added and supplemented with the culture medium to 1000 μL, while no UV irradiation was performed; The UV group and the drug groups were exposed to an […] UV light. After irradiation, in the UV group the PBS solution and a culture medium were added to 1000 μL, and in the drug groups the diluted active substance and the culture medium were added to 1000 μL. The control group, the UV group, and the drug groups were further incubated in a 5% CO2 incubator at 37° C. for 48 h. After the completion of the culture, the solutions were centrifuged at 3000 rpm for 10 min, in each of which a cell supernatant was collected to obtain a sample liquid. […]

IL-6 = assay: Anti-inflammatory cell assay, UV-irradiated HaCaT cells, IL-6 ELISA; conditions: 50 ppm, 48 h after UV irradiation, compared with UV group (FIG. 3)
Experimental: as §3, §1, §4, §2, §5

HaCaT cells = assay: Cell viability assay (MTT) in HaCaT cells; conditions: 1, 10, 100 and 200 ppm, 72 h, compared with PBS control group (FIG. 1)
From the text: as §1
• the peptide H-Pro-Lys-Glu-Lys-OH (hereinafter referred to as the reference peptide), at a test concentration of 1 ppm, 10 ppm, 100 ppm, and 200 ppm, respectively; • the peptide (1), at a test concentration of 1 ppm, 10 ppm, 100 ppm, and 200 ppm, respectively; • the peptide (3), at a test concentration of 1 ppm, 10 ppm, 100 ppm, and 200 ppm, respectively; • the peptide (5), at a test concentration of 1 ppm, 10 ppm, 100 ppm, and 200 ppm, respectively.
The purpose of this experiment is to evaluate cell viability 72 h after administration and determine the effect of the peptide derivatives of the present invention on cell viability by using HaCaT cells as the experiment subject.
as §2
The cells were inoculated in a 96-well plate at 2000 cells/well. After the cells adhered to the wall, samples of the drug groups and the control group were added according to the multiple dilution method, supplemented with a culture medium to 200 μL, and cultured in a 5% CO2 incubator at 37° C. for 72 h.
Then 20 μL 5 mg/ml MTT was added to each well and the incubation was continued in the 5% CO2 incubator at 37° C. for 4 h. The original solution was removed and DMSO was added at 150 μL/well. After 5 min, the microplate reader was used to read the reference OD values at 490 nm and 630 nm wavelengths.
The MTT assay is a method of detecting cell survival and growth. The measured OD values are directly proportional to cell viability.

Molecule: O=C(O)c1cccnc1 [NA, niacin]
- statistical difference in the α-MSH inhibition compared with the control group (α-MSH): no statistical difference
- effect on α-MSH expression (α-MSH): inhibited the α-MSH expression to a certain extent

Molecule: H-Pro-Lys-Glu-Lys-OH (H-PKEK-OH) [reference peptide]
- effect on TNF-α expression (TNF-α): inhibited the TNF-α expression to a certain extent, but the inhibitory effect was not obvious
- statistical difference in the α-MSH inhibition compared with the control group (α-MSH): no statistical difference
- effect on α-MSH expression (α-MSH): inhibited the α-MSH expression to a certain extent
- effect on IL-6 expression (IL-6): significantly down-regulated

Molecule: NCCCCC(NC(=O)C(CCC(=O)O)NC(=O)C(CCCCN)NC(=O)C1CCCN1C(=O)OCc1cc(=O)c(O)co1)C(=O)O (stereo not drawn) [peptide (5), KA-CO-Pro-Lys-Glu-Lys-OH] (X1-PKEK-OH; configuration not given here)
- effect on HaCaT cell viability (HaCaT cells): no significant effect

Molecule: O=c1cc(CO)occ1O [KA, kojic acid]
- statistical difference in the α-MSH inhibition compared with the control group (α-MSH): no statistical difference
- effect on α-MSH expression (α-MSH): inhibited the α-MSH expression to a certain extent

Molecule: tranexamic acid [TXC]
- effect on α-MSH expression (α-MSH): inhibited the α-MSH expression to a certain extent

Molecule: NCCCCC(NC(=O)C(CCC(=O)O)NC(=O)C(CCCCN)NC(=O)C1CCCN1C(=O)c1cccnc1)C(=O)O (stereo not drawn) [peptide (1), NA-Pro-Lys-Glu-Lys-OH] (Nicotinoyl-PKEK-OH; configuration not given here)
- effect on HaCaT cell viability (HaCaT cells): no significant effect

Molecule: TXC-Pro-Lys-Glu-Lys-OH [peptide (3)]
- effect on TNF-α expression (TNF-α): significantly down-regulated
- effect on α-MSH expression (α-MSH): significantly down-regulated
- effect on HaCaT cell viability (HaCaT cells): no significant effect
- effect on IL-6 expression (IL-6): significantly down-regulated
